Results: paper PMC4832832 (Archiv Der Pharmazie, 2015)
“Also recorded” adds a separate entry of the source. Like-named read-outs stand apart in the source and are kept apart here.

Tests used:
HeLa cells = details: HeLa cell cultures
Punta Toro virus = assay: microbe, parasite or virus in culture; assay type: cell-based
Vero cells = details: Vero cell cultures
Reovirus‐1 = assay: organism not typed; assay type: cell-based
Parainfluenza‐3 virus = assay: organism not typed; assay type: cell-based
Sindbis virus = assay: microbe, parasite or virus in culture; assay type: cell-based
[1] = tested on: Vesicular stomatitis virus; assay type: cell-based; details: for EC50: read-out: EC50 Vesicular stomatitis virus
Coxsackie virus B4 [2] = assay type: cell-based; details: for EC50: read-out: EC50 Coxsackie virus B4, reduce virus-induced cytopathogenicity by 50%
[3] = tested on: Respiratory syncytial virus; assay type: cell-based; details: for inhibitory activity against respiratory syncytial virus (in words): HeLa cells
Coxsackie virus B4 [4] = assay type: cell-based; details: Vero cell cultures
[5] = tested on: Varicella-zoster virus (VZV) TK+(Oka strain); assay type: cell-based; details: for activity against TK+ VZV strain (in words): HEL cells; for activity against varicella‐zoster virus (in words): strain not given
[6] = tested on: Varicella-zoster virus (VZV) TK-(Oka strain); assay type: cell-based; details: HEL cells
[7] = microscopically detectable alteration of normal cell morphology
[8] = Vero cell cultures, unit of the DS-10.000 line
[9] = HeLa cell cultures, unit of the DS-10.000 line

## NC(=O)c1ncn([C@@H]2O[C@H](CO)[C@@H](O)[C@H]2O)n1 [Ribavirin, ribavirin]
HeLa cells; [7]
  Minimum cytotoxic concentration: >250 µM
Punta Toro virus; Punta Toro virus, Vero, read-out: EC50 Punta Toro virus
  EC50: 112 µM
Vero cells; [7]
  Minimum cytotoxic concentration: >250 µM
Reovirus‐1; Vero, read-out: EC50 Reovirus‐1
  EC50: > 250 µM
Parainfluenza‐3 virus; Vero, read-out: EC50 Parainfluenza‐3 virus
  EC50: 85 µM
Sindbis virus; Sindbis virus, Vero, read-out: EC50 Sindbis virus
  EC50: > 250 µM

## Diethyl [(4‐(1‐(2,3,5‐tri‐O‐benzoyl‐β‐D‐ribofuranos‐1‐yl)‐1,2,3‐triazol‐4‐yl)phenyl)(2‐bromophenylamino)methyl]phosphonate [Compound 4c]
HeLa cells; [7]
  Minimum cytotoxic concentration: >100 µM
[1]
  EC50: > 100 µM
Coxsackie virus B4 [2]; HeLa cell cultures
  EC50: > 100 µM
[3]
  inhibitory activity against respiratory syncytial virus (in words): slight inhibition; also recorded: modest inhibitory activity

## Diethyl [(4‐(1‐(2,3,5‐tri‐O‐benzoyl‐β‐D‐ribofuranos‐1‐yl)‐1,2,3‐triazol‐4‐yl)phenyl)(2‐chlorophenylamino)methyl]phosphonate [Compound 4b]
HeLa cells; [7]
  Minimum cytotoxic concentration: >100 µM
[1]
  EC50: > 100 µM
Coxsackie virus B4 [2]; HeLa cell cultures
  EC50: > 100 µM
[3]
  inhibitory activity against respiratory syncytial virus (in words): slight inhibition; also recorded: modest inhibitory activity

## Diethyl [(4‐(1‐(2,3,5‐tri‐O‐benzoyl‐β‐D‐ribofuranos‐1‐yl)‐1,2,3‐triazol‐4‐yl)phenyl)(4‐bromophenylamino)methyl]phosphonate [Compound 4d]
HeLa cells; [7]
  Minimum cytotoxic concentration: >100 µM
[1]
  EC50: > 100 µM
Coxsackie virus B4 [2]; HeLa cell cultures
  EC50: > 100 µM

## Diethyl [(4‐(1‐(2,3,5‐tri‐O‐benzoyl‐β‐D‐ribofuranos‐1‐yl)‐1,2,3‐triazol‐4‐yl)phenyl)(benzylamino)methyl]phosphonate [Compound 4h]
Vero cells; [7]
  Minimum cytotoxic concentration: >100 µM
Coxsackie virus B4 [2]; HeLa cells
  activity against Coxsackie virus B4 (in words): no activity
Coxsackie virus B4 [4]
  activity against Coxsackie virus B4 (in words): some activity; also recorded: modest inhibitory activity
Coxsackie virus B4 [4]; read-out: EC50 Coxsackie virus B4, reduce virus-induced cytopathogenicity by 50%
  EC50: 20 µM

## Diethyl [(4‐(1‐(β‐D‐ribofuranos‐1‐yl)‐1,2,3‐triazol‐4‐yl)phenyl)(2‐bromophenylamino)methyl]phosphonate [Compound 5c]
[5]
  activity against TK+ VZV strain (in words): weak activity
  activity against varicella‐zoster virus (in words): modest activity
[6]
  activity against TK− VZV strain (in words): weak activity

## Diethyl [(4‐(1‐(β‐D‐ribofuranos‐1‐yl)‐1,2,3‐triazol‐4‐yl)phenyl)(2‐naphthalenylamino)methyl]phosphonate [Compound 5g]
[5]
  activity against TK+ VZV strain (in words): weak activity
  activity against varicella‐zoster virus (in words): modest activity
[6]
  activity against TK− VZV strain (in words): weak activity

## Diethyl [(4‐(1‐(β‐D‐ribofuranos‐1‐yl)‐1,2,3‐triazol‐4‐yl)phenyl)(4‐chloro‐2‐methylphenylamino)methyl]phosphonate [Compound 5f]
[5]
  activity against TK+ VZV strain (in words): weak activity
  activity against varicella‐zoster virus (in words): modest activity
[6]
  activity against TK− VZV strain (in words): weak activity

## dextran sulfate [DS‐10.000, reference compound]
HeLa cells; unit of the DS-10.000 line
  Minimum cytotoxic concentration: >100 µg/mL
[1]
  EC50 Vesicular stomatitis virus: 12 µg/mL
Punta Toro virus; [8]
  EC50 Punta Toro virus: 8.9 µg/mL
Vero cells; unit of the DS-10.000 line
  Minimum cytotoxic concentration: >100 µg/mL
Reovirus‐1; [8]
  EC50 Reovirus‐1: >100 µg/mL
Coxsackie virus B4 [2]; [9]
  EC50 Coxsackie virus B4: >100 µg/mL
Coxsackie virus B4 [4]; unit of the DS-10.000 line
  EC50 Coxsackie virus B4: >100 µg/mL
[3]; [9]
  EC50 Respiratory syncytial virus: 1.3 ± 0.7 µg/mL
Parainfluenza‐3 virus; [8]
  EC50 Parainfluenza‐3 virus: >100 µg/mL
Sindbis virus; [8]
  EC50 Sindbis virus: 8.9 µg/mL
